Experiment in all cases: AK assay 384-well format, Prestwick library screening
In one experiment the test system is E. faecium. The class given is cell-based, Enterococcus faecium. As to conditions: 50 μM final drug concentration; for fold induction at 50 µM: Enterococcus faecium, 3 h.
Experiment [1] deals with S. aureus strain USA300-0114. In kind it is cell-based, Staphylococcus aureus. To be noted: 50 μM final drug concentration; for fold induction at 50 µM: Staphylococcus aureus, USA300, 3 h.
The subject of a further experiment is K. pneumoniae. The class given is cell-based, Klebsiella pneumoniae. To be noted: 50 μM final drug concentration; for fold induction at 50 µM: Klebsiella pneumoniae, 3 h.
Experiment [2] deals with A. baumannii strain 98-37-09. The class given is cell-based, Acinetobacter baumannii. To be noted: 50 μM final drug concentration; for fold induction at 50 µM: Acinetobacter baumannii, 983709, 3 h.
The subject of the next experiment is P. aeruginosa. In kind it is cell-based, Pseudomonas aeruginosa. As to conditions: 50 μM final drug concentration; for fold induction at 50 µM: Pseudomonas aeruginosa, 3 h.
The next experiment relates to E. cloacae. The class given is cell-based, Enterobacter cloacae. As to conditions: 50 μM final drug concentration; for fold induction at 50 µM: Enterobacter cloacae, 3 h.
Another experiment concerns E. coli. The class given is cell-based, Escherichia coli. To be noted: 50 μM final drug concentration; for fold induction at 50 µM: Escherichia coli, 3 h.
Where [3] appears, read: planktonic E. coli, […], read-out: AK-based Prestwick library screening result, E. coli (fold increase in extracellular AK activity).
Setting [4] is: 384-well format, cutoff for positive-scoring molecules 3-fold increase.
[5] abbreviates: cutoff for positive-scoring molecules 3-fold increase, read-out: AK-based Prestwick Library Screening Results, E. faecium (fold increase in extracellular AK activity).
[6] abbreviates: cutoff for positive-scoring molecules 3-fold increase, read-out: AK-based Prestwick Library Screening Results, S. aureus (fold increase in extracellular AK activity).
The mark [7] stands for this setting: cutoff for positive-scoring molecules 3-fold increase, read-out: AK-based Prestwick Library Screening Results, K. pneumoniae (fold increase in extracellular AK activity).
Where [8] appears, read: cutoff for positive-scoring molecules 3-fold increase, read-out: AK-based Prestwick Library Screening Results, A. baumannii (fold increase in extracellular AK activity).
The mark [9] stands for this setting: cutoff for positive-scoring molecules 3-fold increase, read-out: AK-based Prestwick Library Screening Results, P. aeruginosa (fold increase in extracellular AK activity).
[10] abbreviates: cutoff for positive-scoring molecules 3-fold increase, read-out: AK-based Prestwick Library Screening Results, E. cloacae (fold increase in extracellular AK activity).
Setting [11] is: cutoff for positive-scoring molecules 3-fold increase, read-out: AK-based Prestwick Library Screening Results, E. coli (fold increase in extracellular AK activity).

Where a name gives a salt, the structure may show the parent alone. Read-outs that look alike come from different tables or passages of the source.

Take `CC(=O)O[C@H]1C[C@@H]2CC[C@@H]3[C@H](CC[C@@]4(C)[C@H]3C[C@H]([N+]3(C)CCCCC3)[C@@H]4OC(C)=O)[C@@]2(C)C[C@@H]1[N+]1(C)CCCCC1` [Pancuronium bromide]: the fold induction at 50 µM came to 1 with E. faecium (planktonic E. faecium, positive cutoff 3-fold increase, read-out: AK-based Prestwick library screening result, E. faecium (fold increase in extracellular AK activity)); 1.1 in experiment [1] (planktonic S. aureus, positive cutoff 3-fold increase, read-out: AK-based Prestwick library screening result, S. aureus (fold increase in extracellular AK activity)); 1 in the experiment on K. pneumoniae (planktonic K. pneumoniae, positive cutoff 3-fold increase, read-out: AK-based Prestwick library screening result, K. pneumoniae (fold increase in extracellular AK activity)); 1.1 in experiment [2] (planktonic A. baumannii, positive cutoff 3-fold increase, read-out: AK-based Prestwick library screening result, A. baumannii (fold increase in extracellular AK activity)); 0.9 in the experiment on P. aeruginosa (planktonic P. aeruginosa, positive cutoff 3-fold increase, read-out: AK-based Prestwick library screening result, P. aeruginosa (fold increase in extracellular AK activity)); 1.6 in the experiment with E. cloacae (planktonic E. cloacae, positive cutoff 3-fold increase, read-out: AK-based Prestwick library screening result, E. cloacae (fold increase in extracellular AK activity)). Moreover, the fold induction at 50 µM in the experiment with E. coli (setting [3]) was found to be 1.1.
Consider `CC(C)(CO)[C@@H](O)C(=O)NCCCO` [Panthenol (D)], for which the “AK-based Prestwick Library Screening Results, E. faecium (increase in extracellular AK activity)” value in the experiment on E. faecium (setting [4]) is 0.8. For the same compound, in experiment [1] (setting [4]), the “AK-based Prestwick Library Screening Results, S. aureus (increase in extracellular AK activity)” value is 0.6. Besides, in the experiment on K. pneumoniae (setting [4]), the “AK-based Prestwick Library Screening Results, K. pneumoniae (increase in extracellular AK activity)” value was determined as 0.7. Moreover, the “AK-based Prestwick Library Screening Results, A. baumannii (increase in extracellular AK activity)” value in experiment [2] (setting [4]) was determined as 0.8. In addition, the “AK-based Prestwick Library Screening Results, P. aeruginosa (increase in extracellular AK activity)” value with P. aeruginosa (setting [4]) is given as 0.7. The “AK-based Prestwick Library Screening Results, E. cloacae (increase in extracellular AK activity)” value with E. cloacae (setting [4]) turned out to be 1.0. In the experiment with E. coli (setting [4]), the “AK-based Prestwick Library Screening Results, E. coli (increase in extracellular AK activity)” value is given as 0.9.
With `COc1ccc(Cc2nccc3cc(OC)c(OC)cc23)cc1OC` [Papaverine hydrochloride], the fold induction at 50 µM was determined as 1 in the experiment with E. faecium (planktonic E. faecium, cutoff for positive-scoring molecules 3-fold increase, read-out: AK-based Prestwick Library Screening Results, E. faecium (increase in extracellular AK activity)); 0.6 in experiment [1] (planktonic S. aureus, cutoff for positive-scoring molecules 3-fold increase, read-out: AK-based Prestwick Library Screening Results, S. aureus (increase in extracellular AK activity)); 0.8 in the experiment with K. pneumoniae (planktonic K. pneumoniae, cutoff for positive-scoring molecules 3-fold increase, read-out: AK-based Prestwick Library Screening Results, K. pneumoniae (increase in extracellular AK activity)); 0.8 in experiment [2] (planktonic A. baumannii, cutoff for positive-scoring molecules 3-fold increase, read-out: AK-based Prestwick Library Screening Results, A. baumannii (increase in extracellular AK activity)); 1 in the experiment on P. aeruginosa (planktonic P. aeruginosa, cutoff for positive-scoring molecules 3-fold increase, read-out: AK-based Prestwick Library Screening Results, P. aeruginosa (increase in extracellular AK activity)); 0.9 with E. cloacae (planktonic E. cloacae, cutoff for positive-scoring molecules 3-fold increase, read-out: AK-based Prestwick Library Screening Results, E. cloacae (increase in extracellular AK activity)). In the experiment with E. coli (planktonic E. coli, cutoff for positive-scoring molecules 3-fold increase, read-out: AK-based Prestwick Library Screening Results, E. coli (increase in extracellular AK activity)), the fold induction at 50 µM came to 0.9.
In the case of `CCCCc1ccc2[nH]c(NC(=O)OC)nc2c1` [Parbendazole], the fold induction at 50 µM with E. faecium (planktonic E. faecium, […], read-out: AK-based Prestwick library screening result, E. faecium (fold increase in extracellular AK activity)) turned out to be 0.6; in experiment [1] (planktonic S. aureus, […], read-out: AK-based Prestwick library screening result, S. aureus (fold increase in extracellular AK activity)), 0.7; with K. pneumoniae (planktonic K. pneumoniae, […], read-out: AK-based Prestwick library screening result, K. pneumoniae (fold increase in extracellular AK activity)), 0.7; in experiment [2] (planktonic A. baumannii, […], read-out: AK-based Prestwick library screening result, A. baumannii (fold increase in extracellular AK activity)), 0.8; in the experiment with P. aeruginosa (planktonic P. aeruginosa, […], read-out: AK-based Prestwick library screening result, P. aeruginosa (fold increase in extracellular AK activity)) it was 0.7; in the experiment with E. cloacae (planktonic E. cloacae, […], read-out: AK-based Prestwick library screening result, E. cloacae (fold increase in extracellular AK activity)), 1.2. For the same compound, the fold induction at 50 µM in the experiment with E. coli (setting [3]) amounted to 0.7.
For `C#CCN(C)Cc1ccccc1` [Pargyline hydrochloride], the fold induction at 50 µM turned out to be 0.9 with E. faecium (384-well format, cutoff for positive-scoring molecules 3-fold increase, read-out: AK-based Prestwick Library Screening Results, E. faecium (increase in extracellular AK activity)); 0.8 in experiment [1] (384-well format, cutoff for positive-scoring molecules 3-fold increase, read-out: AK-based Prestwick Library Screening Results, S. aureus (increase in extracellular AK activity)); 0.8 with K. pneumoniae (384-well format, cutoff for positive-scoring molecules 3-fold increase, read-out: AK-based Prestwick Library Screening Results, K. pneumoniae (increase in extracellular AK activity)); 0.9 in experiment [2] (384-well format, cutoff for positive-scoring molecules 3-fold increase, read-out: AK-based Prestwick Library Screening Results, A. baumannii (increase in extracellular AK activity)); 1 with P. aeruginosa (384-well format, cutoff for positive-scoring molecules 3-fold increase, read-out: AK-based Prestwick Library Screening Results, P. aeruginosa (increase in extracellular AK activity)); 0.9 with E. cloacae (384-well format, cutoff for positive-scoring molecules 3-fold increase, read-out: AK-based Prestwick Library Screening Results, E. cloacae (increase in extracellular AK activity)). Also, in the experiment with E. coli (384-well format, cutoff for positive-scoring molecules 3-fold increase, read-out: AK-based Prestwick Library Screening Results, E. coli (increase in extracellular AK activity)), the fold induction at 50 µM was found to be 1.
`NC[C@@H]1O[C@H](O[C@H]2[C@@H](O)[C@H](O[C@@H]3[C@@H](O)[C@H](N)C[C@H](N)[C@H]3O[C@H]3O[C@H](CO)[C@@H](O)[C@H](O)[C@H]3N)O[C@@H]2CO)[C@H](N)[C@@H](O)[C@@H]1O` [Paromomycin sulfate]: the fold induction at 50 µM in the experiment on E. faecium (setting [5]) turned out to be 0.9; in experiment [1] (setting [6]) it was 1.3; with K. pneumoniae (setting [7]), 1; in experiment [2] (setting [8]), 1.5; in the experiment on P. aeruginosa (setting [9]), 1; in the experiment on E. cloacae (setting [10]), 1.4. For the same compound, the fold induction at 50 µM with E. coli (setting [11]) turned out to be 1.4.
`Fc1ccc([C@@H]2CCNC[C@H]2COc2ccc3c(c2)OCO3)cc1` [Paroxetine Hydrochloride]: the fold induction at 50 µM came out at 0.9 in the experiment with E. faecium (setting [5]); 1.4 in experiment [1] (setting [6]); 1.2 with K. pneumoniae (setting [7]); 1.3 in experiment [2] (setting [8]); 1.3 with P. aeruginosa (setting [9]); 1.6 in the experiment with E. cloacae (setting [10]). In addition, the fold induction at 50 µM with E. coli (setting [11]) worked out at 1.4.
`CN1C(C)(C)CCCC1(C)C` [Pempidine tartrate]: the fold induction at 50 µM with E. faecium (planktonic, […], read-out: AK-based Prestwick Library Screening Results, E. faecium (fold increase in extracellular AK activity)) was determined as 1; in experiment [1] (planktonic, […], read-out: AK-based Prestwick Library Screening Results, S. aureus (fold increase in extracellular AK activity)), 1.1; in the experiment with K. pneumoniae (planktonic, […], read-out: AK-based Prestwick Library Screening Results, K. pneumoniae (fold increase in extracellular AK activity)) it was 1; in experiment [2] (planktonic, […], read-out: AK-based Prestwick Library Screening Results, A. baumannii (fold increase in extracellular AK activity)), 1.1; with P. aeruginosa (planktonic, […], read-out: AK-based Prestwick Library Screening Results, P. aeruginosa (fold increase in extracellular AK activity)), 1.1; with E. cloacae (planktonic, […], read-out: AK-based Prestwick Library Screening Results, E. cloacae (fold increase in extracellular AK activity)) it was 1.5. For the same compound, the fold induction at 50 µM in the experiment on E. coli (planktonic, […], read-out: AK-based Prestwick Library Screening Results, E. coli (fold increase in extracellular AK activity)) came to 1.1.
For the compound `CC(C)(C)NC[C@H](O)COc1ccccc1C1CCCC1` [Penbutolol sulfate], the fold induction at 50 µM in the experiment with E. faecium (setting [5]) worked out at 0.8; in experiment [1] (setting [6]), 0.4; with K. pneumoniae (setting [7]), 0.5; in experiment [2] (setting [8]), 0.4; in the experiment on P. aeruginosa (setting [9]), 0.5; in the experiment on E. cloacae (setting [10]), 0.4. In addition, the fold induction at 50 µM with E. coli (setting [11]) was determined as 0.5.

Values taken from US10004701B2, “Methods and compositions for treating infection” (UNIVERSITY OF ROCHESTER, priority 2012, dated 2018).
